In patent publication US20240400560A1, “BICYCLIC HETEROCYCLIC DERIVATIVE HAVING VIRAL GROWTH INHIBITORY ACTIVITY AND PHARMACEUTICAL COMPOSITION CONTAINING SAME” (Shionogi & Co., Ltd., priority 2021, published 2024):
pEC50, pIC50: −log10 of the molar value.

Assays:
SARS-CoV-2 [1] = test: Inhibitory activity of cytopathic effect (CPE) in Vero E6/TMPRSS2 cells; assay type: cell-based
SARS-CoV-2 3CL protease = SARS-CoV-2 3CL protease (Severe acute respiratory syndrome coronavirus 2, UniProt P0DTD1); test: Inhibitory activity test against SARS-CoV-2 3CL proteases; assay type: biochemical; conditions: read-out: IC50 (50% SARS-CoV-2 3CL protease inhibitory concentration)
SARS-CoV-2 [2] = test: Inhibitory activity of cytopathic effect (CPE) in HEK293T/ACE2-TMPRSS2 cells; assay type: cell-based; conditions: Severe acute respiratory syndrome coronavirus 2, HEK-293T, 72 h, HEK293T/ACE2-TMPRSS2 cells
[3] = Severe acute respiratory syndrome coronavirus 2, VeroE6/TMPRSS2, 72 h, 50% SARS-CoV-2 infected cell death inhibitory concentration, CellTiter-Glo 2.0 after 3 days culture
[4] = Severe acute respiratory syndrome coronavirus 2, VeroE6/TMPRSS2, 50% SARS-CoV-2 infected cell death inhibitory concentration, class symbols
[5] = cultured 3 days, CellTiter-Glo 2.0 luminescence, read-out: EC50 (50% SARS-CoV-2 infected cell death inhibitory concentration)

Row | SMILES | pEC50 (SARS-CoV-2 [1]; [3]) | pIC50 (SARS-CoV-2 3CL protease) | pEC50 (SARS-CoV-2 [1]; [4]) | pEC50 (SARS-CoV-2 [2]; [5]) | pEC50 (SARS-CoV-2 [2]; 50% SARS-CoV-2 infected cell death inhibitory concentration, CellTiter-Glo 2.0 after 3 days culture, read-out: EC50)
1 | COc1cc(-c2cc(NS(C)(=O)=O)ccc2Cl)cc2c1c(=O)n(-c1cncc(C)c1)c(=O)n2Cc1ccc(F)c(C#N)c1 [Compound I-0072] | 5.61 | 8.00 | – | – | –
2 | COc1cc(-c2cc3c(cc2Cl)NC(=O)C3)cc2c1c(=O)n(Cc1ncn(C)n1)c(=O)n2Cc1cc(Cl)c(F)cc1F [Compound I-0266] | – | > 7.00 | > 6.00 | – | –
3 | COc1cc(-c2cc3c(cc2Cl)NC(=O)C3)cc2c1c(=O)n(-c1cncc(C)c1)c(=O)n2Cc1cc(C#N)c(F)cc1C [Compound I-0160] | 6.17 | 9.14 | – | – | –
4 | COc1cc(-c2cc(C#N)ccc2Cl)cc2c1c(=O)n(-c1cncc(C)c1)c(=O)n2Cc1cc(C#N)ccc1Cl [Compound I-0168] | – | > 7.00 | > 6.00 | – | –
5 | Cc1cncc(-n2c(=O)c3c(F)cc(-c4cc(CO)ccc4Cl)cc3n(Cc3ccc(F)c(C#N)c3)c2=O)c1 [Compound I-0054] | – | > 7.00 | > 6.00 | – | –
6 | COc1cc(-c2cc(C#N)ccc2Cl)cc2c1c(=O)n(-c1cncc(Cl)c1)c(=O)n2Cc1ccc(F)c(C#N)c1 [Compound I-0033] | 6.66 | 7.89 | – | – | –
7 | Cc1cncc(-n2c(=O)c3c(Cl)cc(-c4cc5cn[nH]c5cc4Cl)cc3n(Cc3ccc(F)c(C#N)c3)c2=O)c1 [Compound I-0011] | – | > 7.00 | > 6.00 | – | –
8 | COc1cc(-c2cc(C(N)=O)ccc2Cl)cc2c1c(=O)n(-c1cncc(C)c1)c(=O)n2Cc1ccc(F)c(C#N)c1 [Compound I-0029] | 4.30 | 8.11 | – | – | –
9 | Cc1cncc(-n2c(=O)c3c(F)cc(-c4cc(CO)ccc4Cl)cc3n(Cc3cc(F)c(F)c(F)c3)c2=O)c1 [Compound I-0052] | – | > 7.00 | > 6.00 | – | –
10 | COc1cc(-c2cc(C#N)ccc2Cl)cc2c1c(=O)n(Cc1ncn(C)n1)c(=O)n2Cc1cc(F)c(F)c(F)c1F [Compound I-0053] | 6.30 | 7.52 | – | – | –
11 | O=c1[nH]cccc1Cn1c(=O)c2ccc3ccccc3c2n(Cc2cc(F)c(F)c(F)c2)c1=O [Compound I-0315] | 6.39 | 6.46 | – | – | –
12 | Cc1cncc(-n2c(=O)c3c(Cl)cc(-c4cc(C#N)ccc4Cl)cc3n(Cc3ccc(F)c(C#N)c3)c2=O)c1 [Compound I-0013] | – | > 7.00 | > 6.00 | – | –
13 | Cc1cncc(-n2c(=O)c3c(Cl)cc(-c4cc5c(cc4Cl)NC(=O)C5)cc3n(Cc3ccc(F)c(C#N)c3)c2=O)c1 [Compound I-0004] | 5.94 | 8.00 | – | – | –
14 | COc1cc(-c2cc3cn[nH]c3cc2Cl)cc2c1c(=O)n(-c1cncc(C)c1)c(=O)n2Cc1cc(F)c(F)c(C#N)c1 [Compound I-0166] | – | > 7.00 | > 6.00 | – | –
15 | COc1cc(-c2cc(CO)ccc2Cl)cc2c1c(=O)n(-c1cncc(C)c1)c(=O)n2Cc1ccc(F)c(C#N)c1 [Compound I-0031] | – | > 7.00 | > 6.00 | – | –
16 | COc1cc(-c2cc3c(cc2Cl)NC(=O)C3)cc2c1c(=O)n(-c1cncc(C)c1)c(=O)n2Cc1cc(Cl)c(F)cn1 [Compound I-0059] | 6.47 | 8.70 | – | – | –
17 | Cc1cncc(-n2c(=O)c3c(F)cc(-c4cc(C(N)=O)ccc4Cl)cc3n(Cc3ccc(F)c(C#N)c3)c2=O)c1 [Compound I-0051] | – | > 7.00 | 5.00 to 6.00 | – | –
18 | COc1cc(-c2cc(C(C)=O)ccc2Cl)cc2c1c(=O)n(Cc1ncn(C)n1)c(=O)n2Cc1cc(F)c(F)c(F)c1 [Compound I-0116] | 5.76 | 7.92 | – | – | –
19 | COc1cc(-c2cc3c(cc2Cl)NC(=O)C3)cc2c1c(=O)n(-c1cncc(C)c1)c(=O)n2Cc1cc(C#N)ccc1Cl [Compound I-0167] | 6.28 | 8.72 | – | – | –
20 | COc1cc(-c2cc3cn[nH]c3cc2Cl)cc2c1c(=O)n(-c1cncc(C)c1)c(=O)n2Cc1cc(C#N)ccc1Cl [Compound I-0170] | – | > 7.00 | > 6.00 | – | –

Row | SMILES | pEC50 (SARS-CoV-2 [1]; [3]) | pIC50 (SARS-CoV-2 3CL protease) | pEC50 (SARS-CoV-2 [1]; [4]) | pEC50 (SARS-CoV-2 [2]; [5]) | pEC50 (SARS-CoV-2 [2]; 50% SARS-CoV-2 infected cell death inhibitory concentration, CellTiter-Glo 2.0 after 3 days culture, read-out: EC50)
21 | COc1cc(-c2cc(C(N)=O)ccc2Cl)cc2c1c(=O)n(-c1cncc(C)c1)c(=O)n2Cc1cc(F)c(F)c(F)c1 [Compound I-0067] | – | > 7.00 | > 6.00 | – | –
22 | Cc1cncc(-n2c(=O)c3c(F)cc(-c4cc(C(N)=O)ccc4Cl)cc3n(Cc3cc(F)c(F)c(F)c3)c2=O)c1 [Compound I-0073] | – | > 7.00 | > 6.00 | – | –
23 | COc1cc(-c2cc3cn[nH]c3cc2Cl)cc2c1c(=O)n(Cc1ncn(C)n1)c(=O)n2Cc1cc(F)c(F)c(F)c1F [Compound I-0048] | 6.27 | 7.96 | – | – | –
24 | COc1cc(-c2cc3c(cc2Cl)NC(=O)C3)cc2c1c(=O)n(-c1cncc(C)c1)c(=O)n2Cc1cc(F)c(F)c(F)c1 [Compound I-0058] | 6.71 | 8.82 | – | – | –
25 | Cn1cnc(Cn2c(=O)c3c(F)cc(-c4cc5c(cc4Cl)NC(=O)C5)cc3n(Cc3cc(F)c(F)cc3F)c2=O)n1 [Compound I-0280] | – | > 7.00 | 5.00 to 6.00 | – | –
26 | CC(=O)c1ccc(Cl)c(-c2ccc3c(=O)n(Cc4ccc[nH]c4=O)c(=O)n(Cc4cc(F)c(F)c(F)c4)c3c2)c1 [Compound I-0284] | – | > 7.00 | 5.00 to 6.00 | – | –
27 | COc1cc(-c2cc(CO)ccc2Cl)cc2c1c(=O)n(Cc1ncn(C)n1)c(=O)n2Cc1cc(F)c(F)c(F)c1 [Compound I-0036] | – | > 7.00 | 5.00 to 6.00 | – | –
28 | COc1cc(-c2cc(S(N)(=O)=O)ccc2Cl)cc2c1c(=O)n(-c1cncc(C)c1)c(=O)n2Cc1ccc(F)c(C#N)c1 [Compound I-0066] | 4.95 | 8.30 | – | – | –
29 | COc1cc(-c2cc(C#N)ccc2Cl)cc2c1c(=O)n(Cc1ncn(C)n1)c(=O)n2Cc1cc(F)c(F)c(F)c1 [Compound I-0035] | 6.44 | 7.60 | – | – | –
30 | COc1cc(-c2cc3c(cc2Cl)NC(=O)C3)cc2c1c(=O)n(Cc1ncn(C)n1)c(=O)n2Cc1cc(F)c(F)cc1F [Compound I-0273] | – | > 7.00 | 5.00 to 6.00 | – | –
31 | CCOc1cc(-c2cc(C#N)ccc2Cl)cc2c1c(=O)n(-c1cncc(C)c1)c(=O)n2Cc1ccc(F)c(C#N)c1 [Compound I-0295] | 6.37 | 7.82 | – | – | –
32 | COc1cc(-c2cc(-c3cnn(C)c3)ccc2Cl)cc2c1c(=O)n(-c1cncc(C)c1)c(=O)n2Cc1ccc(F)c(C#N)c1 [Compound I-0074] | 5.74 | 7.92 | – | – | –
33 | CCn1cnc(Cn2c(=O)c3c(OC)nc(N4CC[C@@H](F)C4)cc3n(Cc3cc(F)c(F)c(F)c3)c2=O)n1 [Compound I-0927] | – | > 7.00 | – | > 7.00 | –
34 | COc1cc(-c2ncc(N)cc2Cl)cc2c1c(=O)n(Cc1ncn(C)n1)c(=O)n2Cc1cc(F)c(F)c(F)c1 [Compound I-0834] | – | > 7.00 | – | > 7.00 | –
35 | COc1nc2c(=O)n(Cc3ncn(C)n3)c(=O)n(Cc3cc(F)c(F)c(Cl)c3)c2cc1-c1nc(C(=O)NC(C)C)ccc1Cl [Compound I-0883] | – | 8.48 | – | – | 7.52
36 | Cn1cnc(Cn2c(=O)c3c4c(c(-c5ncc(F)cc5Cl)cc3n(Cc3cc(F)c(F)c(Cl)c3)c2=O)CCO4)n1 [Compound I-0561] | – | > 7.00 | – | > 7.00 | –
37 | COc1nc(N2CC[C@@H](C#N)C2)cc2c1c(=O)n(-c1cncc(OCF)c1)c(=O)n2-c1ccc(F)c(Cl)c1 [Compound I-0941] | – | > 7.00 | – | > 7.00 | –
38 | Cn1cnc(Cn2c(=O)c3c4c(c(N5CCC(F)(F)CC5)cc3n(Cc3cc(F)c(F)c(F)c3)c2=O)CCO4)n1 [Compound I-0565] | – | > 7.00 | – | > 7.00 | –
39 | COc1nc(N2CC[C@@H](F)C2)cc2c1c(=O)n(Cc1ncn(C)n1)c(=O)n2-c1ccc(C)c(Cl)c1 [Compound I-0800] | – | > 7.00 | – | > 7.00 | –
